According to article PMC7822874, “Chemoprotective antimalarials identified through quantitative high-throughput screening of Plasmodium blood and liver stage parasites” (Scientific Reports, 2021):
Read-outs that look alike come from different tables or passages of the source.

Experiments:
[1] = tested on: P. falciparum Dd2 Cytb G131S; assay: SYBR Green ABS proliferation assay, NCGC00374598 selected clone C11; format: cell-based, Plasmodium falciparum; details: Plasmodium falciparum
Description: (§1) As resistance selection studies implicated the parasite cytochrome bc1 complex in mediating reduced parasite susceptibility to both NCGC00473217 and NCGC00374598, we leveraged these drug-selected parasites to test for altered drug response to a panel of antimalarial compounds.
(§2) The P. falciparum parasite Dd2 line was cultured in vitro using standard conditions. […] Tissue culture flasks and assay plates were incubated at 37 °C under a gas mixture of 5% CO2, 5% O2 and 90% N2. […] Significant differences were assessed using two-sided Student’s t-tests. All HTS assays were stopped and read at 72 h. Percent response values represent relative growth as judged by SYBR Green-I fluorescence intensity values normalized to controls.
(§3) Fresh uninfected RBCs (0.5% hematocrit) were added on day 7 and media was changed every other day. […] Resistant parasites were maintained under drug media at a volume of 50 mL until a high parasitemia (> 5%) was achieved. Aliquots of the bulk resistant cultures were frozen in cryovials before cloning by limiting dilution in 96-well plates (seeded at 0.25 or 0.5 parasites/well)[70]. After 3 weeks of cloning, we screened for positive wells by flow cytometry with SYBR Green-stained cells. […] Parasites were harvested by saponin lysis at the trophozoite stage and genomic DNA was extracted using the QIAamp DNA Blood Midi Kit (Qiagen, Germantown, MD)[71].

[2] = tested on: P. falciparum Dd2 Cytb A122D; assay: SYBR Green ABS proliferation assay, NCGC00473217 selected clone F12; format: cell-based, Plasmodium falciparum; details: Plasmodium falciparum
Description: as §1, §2, §3

[3] = tested on: P. falciparum Dd2 (clone B2) asexual blood stage parasites; assay: P. falciparum Dd2 asexual blood stage SYBR Green-I 72 h proliferation assay (qHTS); format: cell-based, Plasmodium falciparum; details: Plasmodium falciparum, DD2, Dd2 parental; Hill fit, averaged from three independent replicates; top concentration 29 µM; read-out: Average AC50 (Log[M]), Dd2 (converted)
[4] = tested on: P. falciparum Dd2 Cytb V259L; assay: SYBR Green ABS proliferation assay, NCGC00473217 selected clone F06; format: cell-based, Plasmodium falciparum; details: Plasmodium falciparum
Description: as §1, §2, §3

[5] = tested on: luciferase-expressing P. berghei liver stage parasites in HepG2 cells; assay: Inhibition of liver-stage development assay (ILSDA), Method 2 (WRAIR, 96-well); format: cell-based, Plasmodium berghei; details: for Max Resp (signal direction of the dose response): Method 2, Decrease = decreasing P. berghei viability with dose, Increase = increasing signal, Inactive = no dose response; for AC50: Plasmodium berghei, HepG2, Method 2
[6] = tested on: Plasmodium falciparum Dd2 asexual blood stage parasites; assay: microbe, parasite or virus in culture; parameters: species or system Plasmodium falciparum Dd2 in human erythrocytes; single determination (one 11-point concentration-response curve); details: Plasmodium falciparum, DD2, Erythrocyte, 72 h; read-out: AC50
in vitro [7] = details: human, HepG2-A16-CD81EGFP cells, uninfected
in vitro [8] = details: human, hepg2 cells
HepG2 = details: human, hepg2 cells, 48 h
[9] = tested on: P. berghei-ANKA-GFP-LucCON liver stage parasites in HepG2-A16-CD81EGFP cells; assay: P. berghei liver stage Pb-Luc assay, Method 1 (UCSD, 1536-well); format: cell-based, Plasmodium berghei; details: for activity at 1 µM / activity at 3 µM: 48 h
[10] = DD2, […], averaged from three independent replicates, top concentration 29 µM, read-out: Average AC50 (Log[M]), NCGC00374598 clone C11 (Cytb G131S) (converted)
[11] = DD2, […], averaged from three independent replicates, top concentration 29 µM, read-out: Average AC50 (Log[M]), NCGC00473217 clone F12 (Cytb A122D) (converted)
[12] = DD2, […], averaged from three independent replicates, top concentration 29 µM, read-out: Average AC50 (Log[M]), NCGC00473217 clone F06 (Cytb V259L) (converted)
[13] = Hill fit, 50% of maximum activity response, read-out: AC50
[14] = log10 of molar AC50 from Hill fit, read-out: Log AC50 (converted)
[15] = Plasmodium berghei, 1 uM (compounds provided at 10 mM), average of 2 wells on a 1536 well plate, column 11, read-out: Pb-Luc (P. berghei liver stage), % of control, lower concentration, first repeat
[16] = Plasmodium berghei, 1 uM (compounds provided at 10 mM), average of 2 wells on a 1536 well plate, column 12, read-out: Pb-Luc (P. berghei liver stage), % of control, lower concentration, second repeat
[17] = Plasmodium berghei, 3 uM (compounds provided at 10 mM), average of 2 wells on a 1536 well plate, column 8, read-out: Pb-Luc (P. berghei liver stage), % of control, higher concentration, first repeat
[18] = Plasmodium berghei, 3 uM (compounds provided at 10 mM), average of 2 wells on a 1536 well plate, column 9, read-out: Pb-Luc (P. berghei liver stage), % of control, higher concentration, second repeat
[19] = DD2, cytochrome b mutant line, second value triple, c6, […], read-out: log AC50, mean (converted)
[20] = DD2, cytochrome b mutant line, fourth value triple, c12, […], read-out: log AC50, mean (converted)
[21] = DD2, cytochrome b mutant line, third value triple, c9, […], read-out: log AC50, mean (converted)

| SMILES | AC50 [1, 10] [M] | AC50 [2, 11] [M] | AC50 [3] [M] | AC50 [4, 12] [M] | Max Resp (signal direction of the dose response) [5] | AC50 [6] [nM] | viability at 48 h, 1 µM (in vitro [7]) [%] | viability at 48 h, 3 µM (in vitro [7]) [%] | CC50 at 48 h (in vitro [8]) [nM] | Log AC50 (M) (HepG2) | also measured |
| --- | --- | --- | --- | --- | --- | --- | --- | --- | --- | --- | --- |
| CCCN1C(CC(C)C)=N[S+](=O)([O-])c2cc(NC(=O)c3ccsc3)ccc21 [NCGC00521157-01] | 2.08e-06 | 8.93e-07 | 2e-06 | 1.34e-06 | – | – | – | – | – | – | – |
| CCO.Nc1nc(N)c2cc(Sc3ccc4ccccc4c3)ccc2n1 [MLS000757047-01] | – | – | – | – | Decrease | 1330 | 103 | 93 | 27300 | -4.5643 | AC50 [5, 13]: 2240 nM; AC50 [5, 14]: 2240 nM; HepG2 viability, % of control, higher concentration, second repeat (HepG2-A16-CD81EGFP cells): 96%; HepG2 viability, % of control, lower concentration, second repeat (HepG2-A16-CD81EGFP cells): 99%; activity at 1 µM [9, 15]: 12%; activity at 1 µM [9, 16]: 12%; activity at 3 µM [9, 17]: 11%; activity at 3 µM [9, 18]: 10% |
| CC(C)CC1=N[S+](=O)([O-])c2cc(NC(=O)c3ccc(F)s3)ccc2N1C [NCGC00651708-01] | – | – | – | – | – | – | – | – | – | – | AC50 [1, 19]: 2.99e-06 M; AC50 [2, 20]: 2.11e-06 M |
| CCCN1C(CC(C)C)=N[S+](=O)([O-])c2cc(NC(=O)c3ccc(C(F)(F)F)cc3)ccc21 [NCGC00531759-01] | 2.52e-06 | 8.93e-10 | – | 8.93e-07 | – | – | – | – | – | – | – |
| O=C(Nc1ccc2c(c1)[S+](=O)([O-])N=C1CCCN12)c1ccc(F)cc1 [NCGC00537667-01] | – | – | – | – | – | – | – | – | – | – | AC50 [1, 19]: 1.78e-05 M; AC50 [2, 20]: 1e-05 M; AC50 [4, 21]: 1.59e-05 M |
| CCCN1C(CC(C)C)=N[S+](=O)([O-])c2cc(NC(=O)COC)ccc21 [NCGC00521098-01] | 3.56e-06 | 1.12e-05 | 8.93e-06 | 1.68e-05 | – | – | – | – | – | – | – |
| CCCN1C(CC(C)C)=N[S+](=O)([O-])c2cc(NC(=O)C3CCCO3)ccc21 (centres unmarked) [NCGC00521155-01] | – | 8.93e-06 | 1.26e-05 | 5.97e-06 | – | – | – | – | – | – | – |
| Cc1cccc(Nc2nc(NCc3ccco3)c3ccccc3n2)c1 [MLS000662793-01] | – | – | – | – | Inactive | 4730 | 89 | 74 | 43200 | -4.3643 | activity at 1 µM [9, 15]: 23%; activity at 1 µM [9, 16]: 19%; activity at 3 µM [9, 17]: 13%; activity at 3 µM [9, 18]: 11% |
| O=C1c2ccccc2C2=Nc3ccccc3SC(c3ccc(Cl)cc3)C12 (centres unmarked) [MLS000566883-01] | – | – | – | – | Decrease | 2660 | 90 | 85 | 43200 | -4.3643 | AC50 [5, 13]: 3980 nM; AC50 [5, 14]: 3980 nM |
| COc1ccccc1Nc1cnc2ccc(-c3ccc(OC)c(OC)c3)nn12 [NCGC00412573-01] | – | – | – | – | – | 1530 | 108 | 73.1 | 44400 | -4.3528 | Activity direction (Decrease / Inactive) ([5]; P. berghei liver stage, Method 2, dose response): Inactive; HepG2 viability signal, 1 uM, repeat 2 (HepG2-A16-CD81EGFP cells; nominal 1 uM (10 mM stock), […] for 15 mM, 1.2 uM for 12 mM, 2 uM for 20 mM stock, average of 2 wells, repeat 2): 106.68%; HepG2 viability signal, 3 uM, repeat 2 (HepG2-A16-CD81EGFP cells; nominal 3 uM (10 mM stock), 4.5 uM for 15 mM, 3.6 uM for 12 mM, 6 uM for 20 mM stock, average of 2 wells, repeat 2): 92.36%; Max Resp (signal direction of the dose response) ([9]; Method 1, Decrease = decreasing P. berghei viability with dose, Increase = increasing signal, Inactive = no dose response): Decrease; AC50 ([9]; Method 1, Hill fit, 50% of maximum activity response, read-out: AC50): 447 nM; Log AC50 (M) ([9]; Method 1, log10 of molar AC50 from Hill fit): -6.350 M; activity at 1 µM ([9]; Plasmodium berghei, nominal 1 uM (10 mM stock), […] for 15 mM, 1.2 uM for 12 mM, 2 uM for 20 mM stock, average of 2 wells, 1536-well plate, repeat 1, read-out: Pb-Luc signal, 1 uM, repeat 1): 7.11%; activity at 1 µM ([9]; Plasmodium berghei, nominal 1 uM (10 mM stock), […] for 15 mM, 1.2 uM for 12 mM, 2 uM for 20 mM stock, average of 2 wells, 1536-well plate, repeat 2, read-out: Pb-Luc signal, 1 uM, repeat 2): 51.2%; activity at 1 µM ([9]; Plasmodium berghei, nominal 1 uM (10 mM stock), […] for 15 mM, 1.2 uM for 12 mM, 2 uM for 20 mM stock, average of 2 wells, 1536-well plate, repeat 3, read-out: Pb-Luc signal, 1 uM, repeat 3): 2.63%; activity at 3 µM ([9]; Plasmodium berghei, nominal 3 uM (10 mM stock), 4.5 uM for 15 mM, 3.6 uM for 12 mM, 6 uM for 20 mM stock, average of 2 wells, 1536-well plate, repeat 1, read-out: Pb-Luc signal, 3 uM, repeat 1): 1.18%; activity at 3 µM ([9]; Plasmodium berghei, nominal 3 uM (10 mM stock), 4.5 uM for 15 mM, 3.6 uM for 12 mM, 6 uM for 20 mM stock, average of 2 wells, 1536-well plate, repeat 2, read-out: Pb-Luc signal, 3 uM, repeat 2): 32.2%; activity at 3 µM ([9]; Plasmodium berghei, nominal 3 uM (10 mM stock), 4.5 uM for 15 mM, 3.6 uM for 12 mM, 6 uM for 20 mM stock, average of 2 wells, 1536-well plate, repeat 3, read-out: Pb-Luc signal, 3 uM, repeat 3): 43.3%; AC50 ([9]; Plasmodium berghei, Method 1, Hill fit, 50% of maximum activity response, read-out: AC50): 355 nM; AC50 ([9]; Plasmodium berghei, Method 1, log10 of molar AC50 from Hill fit, read-out: Log AC50 (converted)): 355 nM |
| CN1C(CSCC(F)(F)F)Nc2cc(Cl)c(S(N)(=O)=O)cc2S1(=O)=O (centres unmarked) [NCGC00182076-03] | 3.56e-06 | 1e-08 | 2.82e-06 | – | – | – | – | – | – | – | – |
| c1ccc(Nc2nc(NCc3ccco3)c3ccccc3n2)cc1 [MLS000767881-01] | – | – | – | – | Decrease | 1680 | 94 | 80 | 43200 | -4.3643 | AC50 [5, 13]: 2240 nM; AC50 [5, 14]: 2240 nM |
| CC(C)CC1=N[S+](=O)([O-])c2cc(NC(=O)c3ccc(F)cc3)ccc2N1 [NCGC00532402-01] | – | – | – | – | – | – | – | – | – | – | AC50 [2, 20]: 1.12e-06 M; AC50 [4, 21]: 3.99e-07 M |
